# From patent US8110571B2, “Benzimidazole and benzothiazole derivatives, method for preparing same, use thereof as drugs, pharmaceutical compositions and novel use especially as c-MET inhibitors” (Aventis Pharma S.A., priority 2005, dated 2012)
# Counter-ions that a name gives are not always drawn.
row,SMILES,melting point [°C]
1,"O=C(CCCC1CCNCC1)Nc1nc2ccc(OS(=O)(=O)c3c(Cl)cccc3Cl)cc2s1 (as salt: benzenesulfonate) [Example 48, 2-[(4-Piperidin-4-ylbutanoyl)amino]-1,3-benzothiazol-6-yl 2,6-dichlorobenzenesulfonate]",114
2,"O=C(NCCCN1CCOCC1)Nc1nc2ccc(OS(=O)(=O)c3c(Cl)cccc3Cl)cc2s1 (as salt: benzenesulfonate) [Example 53, 2-{[(3-morpholin-4-ylpropyl)carbamoyl]amino}-1,3-benzothiazol-6-yl 2,6-dichlorobenzenesulfonate]",94
3,"CN(CCCNC(=O)Nc1nc2ccc(OS(=O)(=O)c3c(Cl)cccc3Cl)cc2s1)c1ccccc1 (as salt: benzenesulfonate) [Example 54, 2-[({3-[methyl(phenyl)amino]propyl}carbamoyl)amino]-1,3-benzothiazol-6-yl 2,6-dichlorobenzenesulfonate]",68
4,"O=C(NCCN1CCC(Cc2ccccc2)CC1)Nc1nc2ccc(OS(=O)(=O)c3c(Cl)cccc3Cl)cc2s1 (as salt: benzenesulfonate) [Example 55, 2-({[2-(4-benzylpiperidin-1-yl)ethyl]carbamoyl}amino)-1,3-benzothiazol-6-yl 2,6-dichlorobenzenesulfonate]",95
5,"O=C(NCCN1CCCC1)Nc1nc2ccc(OS(=O)(=O)c3c(Cl)cccc3Cl)cc2s1 (as salt: benzenesulfonate) [Example 56, 2-{[(2-pyrrolidin-1-ylethyl)carbamoyl]amino}-1,3-benzothiazol-6-yl 2,6-dichlorobenzenesulfonate]",99
6,"O=C(Nc1nc2ccc(OS(=O)(=O)c3c(Cl)cccc3Cl)cc2s1)N1CCC[C@@H]1CN1CCCC1 (as salt: benzenesulfonate) [Example 57, 2-({[(2R)-2-(pyrrolidin-1-ylmethyl)pyrrolidin-1-yl]carbonyl}amino)-1,3-benzothiazol-6-yl 2,6-dichlorobenzenesulfonate]",204
7,"O=C(Nc1nc2ccc(OS(=O)(=O)c3c(Cl)cccc3Cl)cc2s1)N1CCC[C@H]1CN1CCCC1 (as salt: benzenesulfonate) [Example 58, 2-({[(2S)-2-(pyrrolidin-1-ylmethyl)pyrrolidin-1-yl]carbonyl}amino)-1,3-benzothiazol-6-yl 2,6-dichlorobenzenesulfonate]",210
8,"O=C(NCCCN1CCCC1)Nc1nc2ccc(OS(=O)(=O)c3c(Cl)cccc3Cl)cc2s1 (as salt: benzenesulfonate) [Example 59, 2-{[(3-pyrrolidin-1-ylpropyl)carbamoyl]amino}-1,3-benzothiazol-6-yl 2,6-dichlorobenzenesulfonate]",96
9,"CN1CCN(CCNC(=O)Nc2nc3ccc(OS(=O)(=O)c4c(Cl)cccc4Cl)cc3s2)CC1 (as salt: benzenesulfonate) [Example 60, 2-({[2-(4-methylpiperazin-1-yl)ethyl]carbamoyl}amino)-1,3-benzothiazol-6-yl 2,6-dichlorobenzenesulfonate]",100
10,"CN1CCCC1CCNC(=O)Nc1nc2ccc(OS(=O)(=O)c3c(Cl)cccc3Cl)cc2s1 (stereo not shown) (as salt: benzenesulfonate) [Example 61, 2-({[2-(1-methylpyrrolidin-2-yl)ethyl]carbamoyl}amino)-1,3-benzothiazol-6-yl 2,6-dichlorobenzenesulfonate]",178
11,"CN(C)CCCNC(=O)Nc1nc2ccc(OS(=O)(=O)c3c(Cl)cccc3Cl)cc2s1 (as salt: benzenesulfonate) [Example 62, 2-({[3-(dimethylamino)propyl]carbamoyl}amino)-1,3-benzothiazol-6-yl 2,6-dichlorobenzenesulfonate]",100
12,"CC1CCCC(C)N1CCNC(=O)Nc1nc2ccc(OS(=O)(=O)c3c(Cl)cccc3Cl)cc2s1 (stereo not shown) (as salt: benzenesulfonate) [Example 63, 2-({[2-(2,6-dimethylpiperidin-1-yl)ethyl]carbamoyl}amino)-1,3-benzothiazol-6-yl 2,6-dichlorobenzenesulfonate]",122
13,"O=C(NCCN1CCCCC1)Nc1nc2ccc(OS(=O)(=O)c3c(Cl)cccc3Cl)cc2s1 (as salt: benzenesulfonate) [Example 64, 2-{[(2-piperidin-1-ylethyl)carbamoyl]amino}-1,3-benzothiazol-6-yl 2,6-dichlorobenzenesulfonate]",172
14,"O=C(NCCCN1CCCC1=O)Nc1nc2ccc(OS(=O)(=O)c3c(Cl)cccc3Cl)cc2s1 (as salt: benzenesulfonate) [Example 65, 2-({[3-(2-oxopyrrolidin-1-yl)propyl]carbamoyl}amino)-1,3-benzothiazol-6-yl 2,6-dichlorobenzenesulfonate]",195
15,"CN(C)c1ccc(CNC(=O)Nc2nc3ccc(OS(=O)(=O)c4c(Cl)cccc4Cl)cc3s2)cc1 (as salt: benzenesulfonate) [Example 66, 2-({[4-(dimethylamino)benzyl]carbamoyl}amino)-1,3-benzothiazol-6-yl 2,6-dichlorobenzenesulfonate]",154.5
16,"O=C(NCCCN1CCN(Cc2c(F)cccc2Cl)CC1)Nc1nc2ccc(OS(=O)(=O)c3c(Cl)cccc3Cl)cc2s1 (as salt: benzenesulfonate) [Example 67, 2-[({3-[4-(2-chloro-6-fluorobenzyl)piperazin-1-yl]propyl}carbamoyl)amino]-1,3-benzothiazol-6-yl 2,6-dichlorobenzenesulfonate]",93
17,"O=C(NCCCN1CCN(Cc2ccccc2)CC1)Nc1nc2ccc(OS(=O)(=O)c3c(Cl)cccc3Cl)cc2s1 (as salt: benzenesulfonate) [Example 68, 2-({[3-(4-benzylpiperazin-1-yl)propyl]carbamoyl}amino)-1,3-benzothiazol-6-yl 2,6-dichlorobenzenesulfonate]",218
18,"CN1CCN(CCCNC(=O)Nc2nc3ccc(OS(=O)(=O)c4c(Cl)cccc4Cl)cc3s2)CC1 (as salt: benzenesulfonate) [Example 69, 2-({[3-(4-methylpiperazin-1-yl)propyl]carbamoyl}amino)-1,3-benzothiazol-6-yl 2,6-dichlorobenzenesulfonate]",96.5
19,"O=C(NCc1ccc(N2CCOCC2)cc1)Nc1nc2ccc(OS(=O)(=O)c3c(Cl)cccc3Cl)cc2s1 (as salt: benzenesulfonate) [Example 70, 2-{[(4-morpholin-4-ylbenzyl)carbamoyl]amino}-1,3-benzothiazol-6-yl 2,6-dichlorobenzenesulfonate]",177
20,"O=C(Nc1nc2ccc(OS(=O)(=O)c3c(Cl)cccc3Cl)cc2s1)NC1CCCCCC1 (as salt: benzenesulfonate) [Example 72, 2-[(cycloheptylcarbamoyl)amino]-1,3-benzothiazol-6-yl 2,6-dichlorobenzenesulfonate]",163
21,"O=C(Nc1nc2ccc(OS(=O)(=O)c3c(Cl)cccc3Cl)cc2s1)NC1CCCC1 (as salt: benzenesulfonate) [Example 73, 2-[(cyclopentylcarbamoyl)amino]-1,3-benzothiazol-6-yl 2,6-dichlorobenzenesulfonate]",249
22,"CC(C)NC(=O)Nc1nc2ccc(OS(=O)(=O)c3c(Cl)cccc3Cl)cc2s1 (as salt: benzenesulfonate) [Example 74, 2-[(isopropylcarbamoyl)amino]-1,3-benzothiazol-6-yl 2,6-dichlorobenzenesulfonate]",169
